Source: EP1276895B1, “METHOD FOR THE IDENTIFICATION OF ACTIVE SITE PROTEASE INACTIVATORS” (THE UNIVERSITY OF GEORGIA RESEARCH FOUNDATION, INC., priority 2000, dated 2001)
Starred links: 1 amine or outer side, 2 acyl side, 3 side chain; linkers in the order of their positions; H or OH if unused. Residues, ends and D or L forms follow the SMILES beside them. *: point of attachment. AFC = O=c1cc(C(F)(F)F)c2ccc(N*)cc2o1; Suc = O=C(CCC(=O)[*:2])[*:1]; Boc = CC(C)(C)OC(=O)*

Tests used:
Taenia solium crude mix = assay: Competitor assay of vehicles against high Vmax substrate cocktails (Step III), crude mix; format: biochemical
Protocol: Step III for a crude mix proceeds it would for a purified protease, except that Vm is used instead of kcat.
(§1) The experiment began with a competitor test between the noncleaved low Vmax substrates and the highest Vmax substrate, Z-Phe-Arg-AFC. Concentrations were varied between the low Vmax substrate and Z-Phe-Arg-AFC, as described above under "refinement of assay" until a relative inhibition profile was obtained.
(§2) Percent inhibition was calculated as: %Inhibition =; ((AFC positive for"Y"-AFC negative for"Y")-(AFC test-AFC negative for"Y")X100)/(AFC positive for "Y"-AFC negative for "Y") [formula]
One of the most intriguing findings in this experiment was that a highly similar inhibition pattern for the competitor assay was noted when the crude mix was employed as the source of the target protease. Although there were some variations in the effects of inhibitor dilution, the most highly ranked vehicles remained inhibitory consistently in comparison to the profile with the target protease. The relative profile and composition of the top tiers of vehicles was identical. Z-LLL-AFC, Z-LLY-AFC, Mu-LY-AFC, Boc-VPR-AFC, Z-SY-AFC, Z-RR-AFC, Z-FLF-AFC, Z-LGR-AFC consistently presented as the top eight vehicles (Fig. 5b), respectively, based upon their V values (Table 2). […] It was notable that the three vehicles had very similar V values. […] As was mentioned, this vehicle along with Z-LLL-AFC and Z-LLY-AFC, were consistently the most inhibitory vehicles. The V values of the most inhibitory vehicle series are shown below in Table 2. Again, a clear break between the first and second tier vehicles could be noted with the V value. Table 2. Vehicles and V value rankings.

[1] = test system: purified Taenia solium cysteine protease; assay: Substrate cleavage screen of AFC-linked synthetic substrates (Step II), purified protease; format: biochemical; details: 1 ug purified protease, 1 ug substrate, Citrate pH 4.9 with 0.01 M cysteine, 18 h, 37 °C
Protocol: In this step, the most efficacious substrate for detection of the cysteine protease (high Kcat substrate) was determined in vitro along with those substrates which were not well cleaved (low kcat substrates). From this point forth, the following conditions refer to all assays: "assay buffer" refers to 0.4 M Citrate, pH 4.9 (the pH optima of the protease). Incubation time was 18 hours at 37°C. These conditions were determined by our preliminary data to be best for kinetic evaluation of the protease. […] The experiments were conducted in […] Borosilicate mini-culture tubes (Fisher Scientific), and a fluorometer (Turner) was employed for detection of AFC cleavage.
Approximately 1 ug (or a proteolytically detectable amount) of the purified target cysteine protease was incubated individually, with 1 ug of each of the available substrates in 500 uL of assay buffer. During this setup, the substrate was pre-incubated in the assay buffer for a short period of time (20 minutes) in order to reach an equilibrated status before the addition of the protease. Cleavage assessments were based upon the property of the protease to cleave synthetic peptide substrates linked at the C-terminus to 7-Amino-4-Trifluoromethyl Coumarin (AFC) as previously described. AFC linked tripeptides, dipeptides, and monopeptides, (with a variety of permutations at P3-P1) were available from Enzyme Systems Products (Livermore, CA), and were used as the source of the subset. Following incubation of enzyme preparations overnight (18 h, 37 °C) with peptide in assay buffer (Citrate, pH 4.9, supplemented with 0.01 M cysteine), free AFC concentrations were measured fluorometrically (excitation 405 nm, emission 505 nm). The proteolytic cleavage released the AFC group, which was measurable as a free molecule by a standard fluorometer and converted into molar quantities, based upon a previously established standard curve. The simplicity of AFC detection by the fluorometer was a key factor which quickened and simplified the procedures.
In the assay, 1 ug of the purified Taenia cysteine protease was added to a saturating amount of Z-Phe-Arg-AFC (4X10^-5 M) in assay buffer. The experiment was conducted in triplicate and repeated at least 5 times until we were certain that variability in AFC cleavage was not statistically significant.
Vmax was calculated for the cleavage of substrates by the purified target protease and Vmax was calculated for substrates cleaved by the crude mix protease using conventional kinetic modeling calculations already described in the art.

[2] = test system: purified Taenia solium cysteine protease; assay: Competitor assay of low Vmax substrates (vehicles) against high Vmax substrate cocktails (Step III), purified protease; format: biochemical; details: purified protease; for V Value: V = P * M, P = inhibition with first (1.4%) cocktail, M = inhibition with last (7.4%) cocktail, vehicle 8X10^-6M, each cocktail substrate 1X10^-6 M
Protocol: (We employed "Vmax" here although Kcat could also be used). Due to the lower number of substrates, a percentage was not chosen for the "BOTTOM %" " substrates. Alternately, all substrates which were not cleaved as determined by a value of 10 uM/hr or less, were chosen to be tested in this step for competitive ability. From this point forth, the term "vehicle" will represent low Vmax substrates that were capable of inhibiting cleavage of the percent cocktails. In this instance, we tested for "vehicles" which inhibited cleavage of the TOP 1.4% cocktail (they were delivered into the active site). Based upon our results from Step II, the top 1.4% cocktail was composed of Z-Phe-Arg-AFC, the highest cleaved substrate.
as §1
The mixture was allowed to equilibrate for a period of 30 minutes. Finally, active purified enzyme was added to the tubes at a concentration which was always 50 times less than the concentration of the high and low Vmax substrates, in order to insure saturation conditions. This concentration varied from purification to purification and the amount added depended upon the yield and specific activity of the purified protease.
Positive controls were set up similarly as described for test controls, except that solvent was added in substitution for the low Vmax substrate (in a volume equal to the low Vmax volume addition). All of the substrates could be dissolved in dimethylsulfoxide (DMSO), and therefore, this was the solvent of choice. Negative controls were set up by adding the low Vmax and the high Vmax substrate in a tube without the protease. All potential non-proteolytic induced liberation of AFC was therefore controlled for in this tube (a feature which also insured stability of the AFC substrates, since these substrates will freely liberate AFC when unstable). A tube set will be established for this negative control.
All controls were set up in triplicate, and experiments repeated a minimum of five times. The assays were incubated at 37°C, for 18 hours overnight.
as §2
A 2.9% cocktail of the high Vmax substrates was made. This was composed of Z-FR-AFC and the second most cleaved substrate, Z-FAR-AFC. The vehicles promoted from the initial screenings above were again tested for competitive inhibition ability with the new cocktails. Their concentrations were set identically to those which were "fixed" in the previous protocols. In other words, 8X10^-6M of the vehicle was added to the culture tube with 1X10^-6 M of Z-FR-AFC and 1X10^-6 M of Z-FAR-AFC. Active protease was added last at a concentration that was 50 times less than the concentration of the high Vmax substrate (to ensure saturating conditions).
In similar experimental fashion, a 4.4%, 5.9%, and 7.4% cocktail were tested with each of the promising vehicles. Each percentage point represented an increase by one substrate. Each of the individual components in the cocktail were added at 1X10^-6 M each, to 8X10^-6 M of the vehicle. The composition of the cocktails was as follows: 4.4% cocktail: Z-FR-AFC, Z-FAR-AFC, and Z-AAK-AFC (third highest cleaved substrate); 5.9% cocktail: Z-FR-AFC, Z-FAR-AFC, Z-AAK-AFC, and AP-AFC (fourth highest cleaved substrate); 7.4% cocktail: […], Z-FAR-AFC, Z-AAK-AFC, AP-AFC, and Z-VLR-AFC. We stopped at this number of substrates in the cocktail, since confidence was obtained that inhibitory potential of vehicles could be "diluted out."
Finally, a manageable set of candidate vehicles was determined. […]

[3] = test system: purified Taenia solium cysteine protease; assay: as above; format: biochemical; details: robustness of inhibition
[4] = test system: purified cysteine protease of Taenia solium; assay: Human IgG degradation inhibition test, western blot (Step IV), purified enzyme; format: biochemical; details: 18 hrs, 37°C, E 64 10^-6 M, vehicle 10^-3 M
Protocol: (§3) To conduct this assessment, a western blot was performed. IgG digestion was detected by incubating 20 ul of T. solium purified enzyme or T. so/ium extract with 1 ug of human IgG (Sigma, St. Louis) in a final volume of 100 ul of assay buffer. Exogenous thiol activation was assessed by incubating the assay in the presence or absence of cysteine. The catalytic class of the IgG protease was determined by pre-incubating the following proteinase inhibitors at their active concentrations, with the enzyme: E 64 (10^-6 M, cysteine proteinases), phenylmethylsulfonyl fluoride (PMSF) (10^-3 M, serine proteinases), pepstatin A (10^-6 M, aspartic proteinases), and 1,10 phenanthroline (10^-3 M, metalloproteinases), and the vehicle, Mu-Leu-Tyr-AFC (10^-3 M). After addition of IgG, the assay was incubated overnight (37°C, 18 hrs). Subsequently, 100 ul of the mixture was boiled in sodium dodecyl sulfate polyacrylamide gel electrophoresis (SDS-PAGE) sample buffer with 2% 2-mercaptoethanol, separated by 12.5% SDS-PAGE, and blotted onto a polyvinylidene difluoride membrane. Tris buffered saline containing 0.1% bovine serum albumin and 0.05% Tween 20 (TBS-BSA) was used to block nonspecific binding. […]

crude mix = assay: Human IgG degradation inhibition test, western blot (Step IV), crude mix; format: biochemical, Taenia solium; details: crude mix compared with purified proteinase; data not shown
Protocol: as §3

| Compound | Tier (Taenia solium crude mix) | V Value (Taenia solium crude mix; V = P * M) | cleavage of AFC-linked substrate (Vmax) [1] | inhibition with the final cocktail (7.4%) ([2]; 7.4% cocktail = Z-FR-AFC + Z-FAR-AFC + Z-AAK-AFC + AP-AFC + Z-VLR-AFC, 1X10^-6 M each, vehicle 8X10^-6 M) | V Value [2] | V Value ([2]; listed as B-VPR-AC) | percentage drop in inhibition between the 1.4% and the 7.4% cocktail [3] [%] | inhibition of cleavage of human IgG [4] | concentration required for inhibition of IgG cleavage (crude mix) |
| --- | --- | --- | --- | --- | --- | --- | --- | --- | --- |
| CC(C)[C@H](NC(=O)OC(C)(C)C)C(=O)N1CCC[C@H]1C(=O)N[C@@H](CCCNC(=N)N)C(=O)Nc1ccc2c(C(F)(F)F)cc(=O)oc2c1 [B-VPR-AFC, Boc-Val-Pro-Arg-AFC] (Boc-Val-Pro-Arg-{AFC}) | 2 (The second tier was composed of those vehicles, which produced inhibition between 20-50% inhibition when in the presence of the 1.4% cocktail) | 0.12 | noncleavable | less than 20% | 0.116 | 0.120 | 38 |  |  |
| CC(C)C[C@H](NC(=O)CCC(=O)O)C(=O)N[C@@H](Cc1ccc(O)cc1)C(=O)Nc1ccc2c(C(F)(F)F)cc(=O)oc2c1 [Suc-Leu-Tyr-AFC] (Suc-Leu-Tyr-{AFC}) |  |  |  |  |  |  |  | inhibit | greater |
